Measurements as given in patent publication US6750244B2, “Compounds active at a novel site on receptor-operated calcium channels useful for treatment of neurological disorders and diseases” (NPS Pharmaceuticals, Inc., priority 1993, dated 2004).
Entries after “also recorded” stand apart in the source; their conditions may differ. Like-named read-outs stand apart in the source and are kept apart here.

What was measured:
L-type calcium channel = test system: T1, L-type calcium channel; test: Inhibition of KCl depolarization-induced increases in intracellular calcium in cultured rat cerebellar granule cells; assay type: cell-based; conditions: cultured rat cerebellar granule cells; read-out: L-type calcium channel: estimated IC50, KCl depolarization-induced increases in intracellular calcium
T1 construct: L-type calcium channel: estimated IC50, KCl depolarization-induced increases in intracellular calcium; other: cultured
Text: The ability of arylalkylamines to inhibit dihydropyridine-sensitive Ca^2+ channels was examined in cerebellar granule cells and a rat aortic smooth muscle cell line, A7r5 cells.

[1] = test system: PCP-like discriminative stimulus effects; assay type: in vivo, rats; conditions: i.p., rats
Text: In this assay, rats who have been trained to lever press for food reinforcement must select which of two levers in their cages is correct. The only stimulus they hive for selecting the correct lever is their ability to detect whether they received a PCP or vehicle injection After about two months of training, rats become very good at discriminating PCP from vehicle injections and can then be tested with other drugs to determine if they are discriminated as PCP. When tested in this procedure, other drugs which are known to produce a PCP-like intoxication substitute for PCP. These drugs include various PCP analogs such as ketamine and the noncompetitive NMDA receptor antagonist, MK-801.

NMDA receptor [2] = test: Inhibition of NMDA/glycine-induced increases in intracellular calcium in cultured rat cerebellar granule cells (RCGC); assay type: cell-based; conditions: NMDA/glycine-induced increases in intracellular calcium, cultured rat cerebellar granule cells; read-out: IC50 (μM) vs. NMDA
[3] = test system: mean arterial blood pressure; conditions: for no significant cardiovascular activity in anesthetized rats at doses up to: i.v.
[4] = test system: maximal electroshock-induced seizures; test: Maximal electroshock-induced seizures in mice; assay type: in vivo; conditions: Mus musculus, mice
[5] = test system: PCP-like stereotypic behavior; test: PCP-like stereotypic behavior (hyperexcitability and head weaving) in rats; conditions: 30 mg/kg i.p.
Text: We investigated whether the arylalkylamines would elicit such behaviors.

[6] = test system: delayed rectifier potassium channel; test: Inhibition of delayed rectifier potassium channel in cultured N1E-115 neuroblastoma cells; assay type: cell-based; conditions: read-out: Delayed rectifier potassium channel: estimated IC50
induction of LTP = test system: induction of LTP; design: species or system rat; conditions: at 100 μM
PBQ-elicited writhing = assay type: in vivo; conditions: 16 mg/kg i.p.
Procedure: In the first series of experiments, the animals were administered an unpleasant stimulus (2-phenyl-1,4-benzoquinone, PBQ) which elicits a writhing response (abdominal stretching). Typically, the number of writhes occurring in a 5 min observation period is recorded. […] Nonsteroidal antiinflammatory agents are likewise effective in this model.

in vivo = conditions: mouse, in vivo, ip
Procedure: (§1) In this assay, Frings and CF1 mice were injected with test compound and placed on a knurled rod which rotated at a speed of 6 rpm. The ability of the mice to maintain equilibrium for long periods of time was determined; those mice that were unable to maintain equilibrium on the rotorod for 1 min in each of 3 trials were considered impaired.

motor performance [7] = test: Acute motor impairment (rotorod) in mice
Procedure: as §1

NMDA receptor [8] = conditions: rat hippocampal slices
Procedure: Glutamate-mediated transmission at synapses of Schaffer collateral fibers and CA1 pyramidal cells was measured in slices of rat brain containing the hippocampus. This assay measures electrophysiologically the postsynaptic depolarization caused by the presynaptic release of glutamate, and can readily distinguish synaptic transmission mediated by NMDA or AMPA receptors.

[9] = target: NMDA receptor-ionophore complex (site labeled by [3H]MK-801); test: Inhibition of [3H]MK-801 binding in rat cortical/hippocampal washed membrane preparations; conditions: read-out: IC50 (μM) vs. [3H]MK-801; rat cortical/hippocampal washed membranes
[10] = test system: central muscarinic cholinergic receptor; assay type: binding, rat
thermal nociception [11] = assay type: in vivo, mice; conditions: 16 mg/kg i.p.
[12] = Lethality (LD50) after oral administration in Frings mice; conditions: mouse, in vivo
sound-induced seizures = test: Sound-induced seizures in Frings mice (reflex epilepsy); assay type: in vivo; conditions: Mus musculus, Frings mice
motor performance [13] = test: Motor toxicity (TD50) in rats; conditions: rats, oral, 25 mg/kg
thermal nociception [14] = assay type: in vivo, rats; conditions: 25 mg/kg i.p.
Procedure: In this standard assay, the thermal nociceptive stimulus was 52° C. warm water with the latency to tail flick or withdrawal taken as the endpoint.

chronic neuropathic pain = test: Rat model of chronic neuropathic pain; assay type: in vivo, rats
[15] = test system: maximal electroshock-induced seizures; test: Maximal electroshock-induced seizures in rats; assay type: in vivo; conditions: rats, oral, 25 mg/kg
[16] = target: T2, norepinephrine uptake site (Rattus norvegicus, UniProt Q63380); test: Norepinephrine uptake binding assay: [3H]desipramine binding to rat cortical membranes
T2 construct: from tissue; host or cells: rat cortical membranes (per the assay title)

[17] = test system: mean arterial pressure, heart rate, ECG; test: Cardiovascular activity in conscious beagle dogs
focal ischemic stroke = test: Rat model of focal ischemic stroke (vessel occlusion); assay type: in vivo, rats; conditions: i.p. 2 mg/kg 30 min prior to vessel occlusion and 2 mg/kg 3 hr post-occlusion
thermal nociception [18] = assay type: in vivo, rats; conditions: 25 mg/kg i.p.; remark: listed apart in the source
Procedure: In these experiments, a 52° C. hot plate was used as the nociceptive stimulus.

neuronal vacuolization = conditions: i.p.
dopamine uptake site = target: T3, dopamine uptake site (Cavia porcellus, UniProt H0WCX4); test: Dopamine uptake binding assay: [3H]WIN-35,428 binding to guinea pig striatal membranes
T3 construct: from tissue; host or cells: guinea pig striatal membranes (per the assay title)

serotonin uptake site = target: T4, serotonin uptake site (Rattus norvegicus, UniProt P31652); test: Serotonin uptake binding assay: [3H]citalopram binding to rat forebrain membranes
T4 construct: from tissue; host or cells: rat forebrain membranes (per the assay title)

behavior [19] = test: Behavioral effects in conscious male NMRI mice
behavior [20] = test: Behavioral effects in conscious beagle dogs
[21] = 3 mg/kg i.v. (60 sec bolus injection)
[22] = 10 mg/kg i.v. (60 sec bolus injection)

T4 sequence (P31652 whole entry): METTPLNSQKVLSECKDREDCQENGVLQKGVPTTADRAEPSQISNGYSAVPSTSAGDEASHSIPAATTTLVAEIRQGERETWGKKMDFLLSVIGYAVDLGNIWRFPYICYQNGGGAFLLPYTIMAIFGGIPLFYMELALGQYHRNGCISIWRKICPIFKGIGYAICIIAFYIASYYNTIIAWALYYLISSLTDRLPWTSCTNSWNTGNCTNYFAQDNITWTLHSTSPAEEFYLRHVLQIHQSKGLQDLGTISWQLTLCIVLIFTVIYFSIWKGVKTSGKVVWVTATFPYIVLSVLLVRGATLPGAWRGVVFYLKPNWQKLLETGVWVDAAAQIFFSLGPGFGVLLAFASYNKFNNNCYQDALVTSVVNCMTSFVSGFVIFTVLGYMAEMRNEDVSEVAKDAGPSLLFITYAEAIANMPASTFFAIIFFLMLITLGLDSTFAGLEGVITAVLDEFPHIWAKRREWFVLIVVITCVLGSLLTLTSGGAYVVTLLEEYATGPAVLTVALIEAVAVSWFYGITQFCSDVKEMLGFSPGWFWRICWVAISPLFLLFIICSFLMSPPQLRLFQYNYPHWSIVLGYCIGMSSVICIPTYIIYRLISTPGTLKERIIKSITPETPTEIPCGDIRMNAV
T2 sequence (Q63380 1-617): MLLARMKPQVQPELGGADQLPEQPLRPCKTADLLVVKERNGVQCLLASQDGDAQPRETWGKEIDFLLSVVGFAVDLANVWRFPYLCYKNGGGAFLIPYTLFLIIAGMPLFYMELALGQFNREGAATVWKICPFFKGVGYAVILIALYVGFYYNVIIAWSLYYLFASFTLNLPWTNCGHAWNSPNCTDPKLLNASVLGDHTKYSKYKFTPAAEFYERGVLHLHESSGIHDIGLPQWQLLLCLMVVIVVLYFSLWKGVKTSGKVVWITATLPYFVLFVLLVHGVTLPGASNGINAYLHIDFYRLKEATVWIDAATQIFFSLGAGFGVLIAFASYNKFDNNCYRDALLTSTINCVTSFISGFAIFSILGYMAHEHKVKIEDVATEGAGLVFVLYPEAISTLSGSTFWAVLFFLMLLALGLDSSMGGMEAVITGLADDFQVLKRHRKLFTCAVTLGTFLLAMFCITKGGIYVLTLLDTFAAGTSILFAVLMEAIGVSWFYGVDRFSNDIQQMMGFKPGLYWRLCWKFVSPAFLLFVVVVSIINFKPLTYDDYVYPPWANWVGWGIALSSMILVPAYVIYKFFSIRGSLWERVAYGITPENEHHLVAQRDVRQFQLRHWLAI
T3 sequence (H0WCX4 1-619): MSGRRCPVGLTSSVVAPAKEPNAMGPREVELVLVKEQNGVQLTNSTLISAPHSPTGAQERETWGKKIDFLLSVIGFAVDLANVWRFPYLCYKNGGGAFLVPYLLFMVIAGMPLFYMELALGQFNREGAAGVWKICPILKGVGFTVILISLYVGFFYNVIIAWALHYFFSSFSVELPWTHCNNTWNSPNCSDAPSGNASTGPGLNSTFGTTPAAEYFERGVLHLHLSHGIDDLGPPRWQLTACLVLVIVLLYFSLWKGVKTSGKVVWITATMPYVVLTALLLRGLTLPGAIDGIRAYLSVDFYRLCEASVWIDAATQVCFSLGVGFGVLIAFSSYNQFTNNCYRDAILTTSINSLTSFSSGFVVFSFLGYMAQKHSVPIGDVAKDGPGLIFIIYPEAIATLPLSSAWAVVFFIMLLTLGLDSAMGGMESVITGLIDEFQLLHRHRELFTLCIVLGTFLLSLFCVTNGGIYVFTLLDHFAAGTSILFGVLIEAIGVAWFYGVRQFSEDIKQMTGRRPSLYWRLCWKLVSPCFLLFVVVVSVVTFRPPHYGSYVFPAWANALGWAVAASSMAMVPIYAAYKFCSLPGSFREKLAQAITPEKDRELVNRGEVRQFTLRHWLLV

With NCCC(c1ccccc1)c1ccccc1 [Compound 19, 3,3-diphenylpropylamine] as the molecule, how does the IC50 (L-type calcium channel) read?
Its IC50 is 10.2 µM.

And the “no generalization to PCP at doses up to the behaviorally active dose of” value [1]?
Its value is no more than 30 mg/kg.

What about the IC50 (NMDA receptor [2]) of the same molecule?
Its IC50 is 0.435 µM.

And the “without effect on blood pressure at doses up to” value ([3]; s.c., rats)?
Its value is “up to 100 mg/kg”.

What about the ED50 ([4]; ip) of the same molecule?
The ED50 was 26.4 mg/kg.

And the ED50 ([4]; oral (p.o.))?
The ED50 was 35 mg/kg.

What about the “PCP-like stereotypic behavior (hyperexcitability and head weaving)” value [5] of the same molecule?
Its value is “no PCP-like stereotypic behavior”.

What about the IC50 [6] of the same molecule?
The IC50 was 1 to 10 µM.

What about the “LTP Assay (block of the induction of LTP)” value (induction of LTP) of the same molecule?
Its value is “did block; also recorded: block at 100”.

And the “analgesic activity in the PBQ-induced writhing assay” value (PBQ-elicited writhing)?
The value was “significant analgesic activity”.

And the TD50 (in vivo)?
The TD50 was 43.8 mg/kg.

What about the motor impairment (motor performance [7]; mice, 30 mg/kg p.o.) of the same molecule?
Its motor impairment is “motor impairment”.

What about the “Suppression of NMDA Receptor-Mediated Synaptic Transmission (concentration which suppresses)” value (NMDA receptor [8]) of the same molecule?
Its value is 100 to 300 µM.

What about the IC50 [9] of the same molecule?
Its IC50 is 2.1 µM.

What about the “Central muscarinic cholinergic receptor: percent block of [3H]QNB binding” value ([10]; at 0.1 μM) of the same molecule?
The value was 4% at.

What about the “Central muscarinic cholinergic receptor: percent block of [3H]QNB binding” value ([10]; at 10 μM) of the same molecule?
Its value is 0.174%.

And the “analgesic activity in the hot-plate assay” value (thermal nociception [11])?
Its value is “significant analgesic activity”.

Which results are given for CC(N)CC(c1cccc(F)c1)c1cccc(F)c1 (stereo not drawn) [Compound 22, 3,3-bis(3-fluorophenyl)-1-methyl-1-propylamine]?
LD50 [12]: 18.3 mg/kg; IC50 (NMDA receptor [2]): 0.145 µM; no significant cardiovascular activity in anesthetized rats at doses up to [3]: ≤ 4.47 mg/kg; TD50 (inverted grid) (motor performance [7]; Frings mice, i.p.): 26.8 mg/kg; IC50 [9]: 3.45 µM; ED50 (sound-induced seizures; ip): 4.9 mg/kg; ED50 (sound-induced seizures; oral): 5.1 mg/kg

For C[C@@H](CN)C(c1cccc(F)c1)c1cccc(F)c1 [Compound 33, 3,3-bis(3-fluorophenyl)-2-methyl-1-propylamine], which motor toxicity (motor performance [13]) is on record?
Its motor toxicity is “no motor toxicity apparent”.

What about the IC50 (L-type calcium channel) of the same molecule?
The IC50 was 1.6 µM.

And the “analgesic activity, rat 48° C. tail flick test” value (thermal nociception [14])?
The value was “no significant analgesic activity”.

And the “analgesic activity, chronic neuropathic pain” value (chronic neuropathic pain; i.p., doses of 3-10 mg/kg)?
The value was “significant analgesic activity”.

What about the “analgesic activity, chronic neuropathic pain” value (chronic neuropathic pain; i.th., doses ranging from 15 to 80 μg) of the same molecule?
Its value is “significant analgesic activity”.

What about the IC50 (NMDA receptor [2]) of the same molecule?
Its IC50 is 0.06 µM.

What about the “no significant cardiovascular activity in anesthetized rats at doses up to” value [3] of the same molecule?
Its value is “up to 3 mg/kg”.

What about the “anticonvulsant activity against maximal electroshock-induced seizures” value [15] of the same molecule?
The value was “significant anticonvulsant activity”.

And the “Monoamine uptake binding assays: norepinephrine uptake binding assay, percent block” value ([16]; at 0.1 μM)?
The value was 10^f2% at.

And the “Monoamine uptake binding assays: norepinephrine uptake binding assay, percent block” value ([16]; at 10 μM)?
Its value is 0.1^g54% at.

What about the cardiovascular activity ([17]; 0.3 mg/kg i.v. (60 sec bolus injection)) of the same molecule?
Its cardiovascular activity is “no significant cardiovascular activity”.

And the mean arterial pressure ([17]; 1 mg/kg i.v. (60 sec bolus injection))?
Its mean arterial pressure is “transient increases in mean arterial pressure”.

And the mean arterial pressure [17, 21]?
Its mean arterial pressure is “larger magnitude and longer duration effects”.

And the heart rate [17, 22]?
The heart rate was “a transient increase in heart rate”.

What about the mean arterial pressure [17, 22] of the same molecule?
Its mean arterial pressure is “larger magnitude and longer duration effects”.

And the “changes in the ECG” value ([17]; doses up to 10 mg/kg i.v. (60 sec bolus injection))?
Its value is “no significant drug-induced changes in the ECG”.

What about the IC50 [6] of the same molecule?
The IC50 was greater than 10 µM.

And the TD50 (in vivo; Frings)?
Its TD50 is 27.8 mg/kg.

And the “neuroprotectant activity in a rat model of focal ischemic stroke” value (focal ischemic stroke)?
The value was “significant neuroprotectant activity”.

And the “analgesic activity, rat 52° C. hot plate test” value (thermal nociception [18])?
Its value is “no significant analgesic activity”.

And the “dose without neuronal vacuolization” value (neuronal vacuolization)?
The value was 30 mg/kg.

What about the “Monoamine uptake binding assays: dopamine uptake binding assay, percent block” value (dopamine uptake site; at 0.1 μM) of the same molecule?
Its value is 23% at.

What about the “Monoamine uptake binding assays: dopamine uptake binding assay, percent block” value (dopamine uptake site; at 10 μM) of the same molecule?
Its value is 0.1^f86% at.

What about the “Monoamine uptake binding assays: serotonin uptake binding assay, percent block” value (serotonin uptake site; at 0.1 μM) of the same molecule?
Its value is 10^g14% at.

And the “Monoamine uptake binding assays: serotonin uptake binding assay, percent block” value (serotonin uptake site; at 10 μM)?
The value was 0.1^h89% at.

And the behavioral effects (behavior [19]; 8 mg/kg i.p.)?
The behavioral effects was “excitation, increased reactivity to touch, and hypothermia”.

What about the behavioral effects (behavior [19]; 64 mg/kg i.p.) of the same molecule?
The behavioral effects was “convulsions”.

And the behavioral effects (behavior [19]; 2 and 4 mg/kg i.p.)?
The behavioral effects was “no behavioral effects”.

What about the behavioral effects (behavior [19]; 16 and 32 mg/kg i.p.) of the same molecule?
Its behavioral effects is “excitation, Straub tail, tremor, jumping, stereotypies, hypothermia, and mydriasis”.

What about the behavioral effects (behavior [19]; 128 and 256 mg/kg i.p.) of the same molecule?
The behavioral effects was “convulsions and death”.

What about the IC50 [9] of the same molecule?
Its IC50 is 0.181 µM.

What about the behavioral effects (behavior [20]; [21]) of the same molecule?
The behavioral effects was “licking of the mouth”.

What about the behavioral effects (behavior [20]; [22]) of the same molecule?
The behavioral effects was “dilated pupils, whole body tremors, incoordination, licking of the mouth, salivation, and panting”.

And the ED50 (sound-induced seizures; ip)?
The ED50 was 4.6 mg/kg.

What about the “Central muscarinic cholinergic receptor: percent block of [3H]QNB binding” value ([10]; at 0.1 μM) of the same molecule?
Its value is 42% at.

What about the “Central muscarinic cholinergic receptor: percent block of [3H]QNB binding” value ([10]; at 10 μM) of the same molecule?
The value was 0.199% at.
